According to patent US20250032580A1, “USE OF ADNF POLYPEPTIDES IN THERAPY” (RAMOT AT TEL-AVIV UNIVERSITY LTD., priority 2021, published 2025):

Key:
Tyr mice [1] = test: Behavioral assessments (odor discrimination and others); type: in vivo, mouse; design: key to NAP efficacy: cognitive impairments, behavioral deficits: corrections by NAP treatment (+)
Description: Animals—Animals were housed under a 12-hour light/dark cycle, with food and water ad-libitum. Mouse pups were subcutaneously administrated with NAP [having an amino acid sequence NAPVSIPQ (SEQ ID NO: 2), 25 μg NAP/1 ml saline] as described (8, 12). At 21 days of age mice were administered daily intranasal NAP in vehicle solution (“DD”—7.5 mg/ml of NaCl, 1.7 mg/ml of citric acid, 3 mg/ml of disodium phosphate dihydrate, and 0.2 mg/ml of 50% benzalkonium chloride solution) (0.5 μg NAP/5p1 DD) (8, 9, 12, and U.S. Pat. No. 10,912,819 to Gozes). These mice continued to behavioral analysis as described hereinbelow. The noninvasive intranasal route was chosen as these experiments required daily handling and administration. Age (weeks) of mice during behavioral experiments (mean±SEM) was as follows: Catwalk-9.23±0.15, grooming-10±0.15, social approach-10.5±0.12, odor-discrimination-12.12±0.13, hanging-wire-13±0.14, hotplate-13.18±0.13. Group size was determined following previous experiments (12). Pups were randomly allocated to either the NAP or DD group according to sex and genotype. […]
Novel object recognition: Briefly, the open field test was used for the first day of habituation since both tests are conducted in the same arena. […] The time spent sniffing/touching each object was measured using the EthoVision XT video tracking system and software (Noldus Inc. Leesburg, VA). Data were analyzed using the discrimination capacity formula: D2=(b−a)/(a+b), where ‘a’ designated the time of exploration of the familiar object and ‘b’ designated the time of exploration of the novel object.
Social approach: A plexiglas box was divided into three adjacent chambers, each 20 cm (length)×40.5 cm (width)×22 cm (height), separated by two removable doors. […] The next day, each subject mouse was tested in an experiment with three phases, (measured with a simple timer): I and II (5 minutes long), the habituation phases (ensuring no bias), and III (10 minutes long), the experimental phase. […]

Tyr mice [2] = test: RNA seq of mouse spleens; type: in vivo; design: key to NAP efficacy: gene expression patterns: corrections by NAP treatment (+)
Description: RNA seq—Total RNA was extracted from 14-week-old mouse spleens and sequenced using standard methods on NextSeq500 system (Illumina) as detailed. Data were analyzed as previously described (9).

[3] = system: differentiated N1E-115 cells; test: FRAP of mCherry-Tau (Tau-MT interaction); type: cell-based, mouse
Description: Cell culture—Mouse neuroblastoma NIE-115 cells were maintained in Dulbecco's modified Eagle's medium, 10% fetal bovine serum, 2 mM glutamine and 100 U ml—1 penicillin, […] ml—1 streptomycin (Biological Industries, Beit Haemek, Israel). The cells were incubated in 95% air/5% CO2 in a humidified incubator at 37° C.
Cell differentiation and co-transfection of overexpression plasmids—Cultured NIE-115 cells were plated on 35 mm dishes (81156, 60μ-Dish, Ibidi, Martinsried, Germany) at a concentration of 1.25×10^4 cells per dish and then were differentiated with reduced fetal bovine serum (2%) and DMSO (1.25%) containing medium for 5 days before transfection. 48 hrs before experiments N1E-115 cells were co-transfected with 1 μg EB3-RFP or mCherry-Tau (3R) plasmid with or without 2 μg of plasmids, coding to GFP conjugated to full-length human ADNP, or ADNP carried mutations. 1:3 ratios between total amount of transfected DNA and transfection reagent were used according to manufacture guidance (Lipofectamine2000, Thermo Fisher Scientific, Waltham, MA, USA) in all subsequent experiments.
Fluorescence recovery after photobleaching (FRAP)—Differentiated NIE-115 cells were transfected with mCherry-Tau with or without GFP-conjugated to full-length ADNP or mutated ADNP, and imaged 48 hrs after transfection. An ROI for photobleaching was drowned in the proximal cell branches. mCherry-Tau was bleached with a […], and fluorescence recovery was collected within wavelengths of 610-650 nm. 80 images were taken every 0.74 sec immediately after bleaching. After FRAP imaging all samples were also treated with NAP in final concentrations of 10^−12 M, and after 4 hrs time-lapse imaging was done again under the same conditions. FRAP imaging for assessment difference between NAP and SKIP (SEQ ID NO: 21) activity was performed after an hour of ZnCl2 treatment (400 μM final concentration; Sigma, Rehovot, Israel) with or without NAP/SKIP (10^−12 M final concentration). Fluorescence signals were quantified with Fiji, obtained data were normalized with easyFRAP [82, 83] and FRAP recovery curves were fitted by a one-phase exponential association function by GraphPad Prism6 (GraphPad Software, Inc., La Jolla, CA, USA) while samples with R^2<0.9 were excluded.
Next, the effect of full-length/truncated ADNP forms with or without NAP treatment on Tau-MT interaction was examined by fluorescence recovery after photobleaching (FRAP) (FIGS. 8A-C). FRAP was performed with mCherry-tagged Tau protein (FIG. 8A). […] Therefore, the immobile mCherry-Tau fraction reflects the rate of Tau association with MTs.

Q: `CC[C@H](C)[C@H](NC(=O)[C@H](CO)NC(=O)[C@@H](NC(=O)[C@@H]1CCCN1C(=O)[C@H](C)NC(=O)[C@@H](N)CC(N)=O)C(C)C)C(=O)N1CCC[C@H]1C(=O)N[C@@H](CCC(N)=O)C(=O)O` [NAP, NAPVSIPQ] was tested. Which Odor discrimination (Tyr mice [1]; Tyr mice, daily intranasal NAP, data not shown) did it give?
A: The Odor discrimination was “NAP reversal in females”.

Q: What about the “NAP efficacy: cognitive impairments, behavioral deficits” value (Tyr mice [1]; Tyr mouse (odor), first symbol of cell) of the same molecule?
A: The value was “+(odor)/+(8)”.

Q: And the “Behavioral, motor, social and sensory traits” value (Tyr mice [1]; WT mice, data not shown)?
A: The value was “varied minor effects”.

Q: And the “Genotype/NAP effect on splenic gene expression” value (Tyr mice [2]; Tyr mice, males vs females)?
A: Its value is “very minor genotype/NAP effect on males, and a more comprehensive effect on females”.

Q: And the “NAP efficacy: gene expression patterns” value (Tyr mice [2]; Tyr mouse, first symbol of cell)?
A: The value was “+/+”.

Q: What about the “Number of RNA transcripts affected by the Tyr Adnp mutation, corrected by NAP treatment” value (Tyr mice [2]; female spleens) of the same molecule?
A: Its value is 89.

Q: What about the “Number of RNA transcripts affected by the Tyr Adnp mutation, corrected by NAP treatment” value (Tyr mice [2]; male spleens) of the same molecule?
A: The value was 13.

Q: And the “Tau-MT interaction (immobile mCherry-Tau fraction)” value ([3]; cells expressing ADNP p.Glu830synfs*83, 10^−12 M, 4 hrs)?
A: The value was “significantly increased”.

Q: What about the “Tau-MT interaction (Tau immobile fraction)” value ([3]; cells expressing ADNP p.Lys408Valfs*31 SDM, 10^−12 M, 4 hrs) of the same molecule?
A: Its value is “prevented by NAP treatment”.

Q: And the “Tau-MT interaction (immobile mCherry-Tau fraction)” value ([3]; cells expressing ADNP p.Ser404*, 10^−12 M, 4 hrs)?
A: Its value is “significantly increased”.

Q: What about the “Tau immobile fraction under zinc” value ([3]; zinc 400 μM, 1 h, together with peptide 10^−12 M) of the same molecule?
A: Its value is “excessive impact”.
